Results taken from ChEMBL document CHEMBL1142811, “Design and syntheses of melanocortin subtype-4 receptor agonists. Part 2: discovery of the dihydropyridazinone motif” (Bioorg Med Chem Lett, 2005).

Key:
Melanocortin receptor 4 [1] = target: T1, Melanocortin receptor 4 (Homo sapiens, UniProt P32245); test: Maximum percentage of cAMP accumulation relative to alpha-MSH at human melanocortin 4 receptor at 10 uM; assay type: functional
Melanocortin receptor 5 [2] = target: T2, Melanocortin receptor 5 (Homo sapiens, UniProt P33032); test: Maximum percentage of cAMP accumulation compared to alpha-MSH at human melanocortin 5 receptor at 10 uM; assay type: functional
T2 sequence (P33032 whole entry): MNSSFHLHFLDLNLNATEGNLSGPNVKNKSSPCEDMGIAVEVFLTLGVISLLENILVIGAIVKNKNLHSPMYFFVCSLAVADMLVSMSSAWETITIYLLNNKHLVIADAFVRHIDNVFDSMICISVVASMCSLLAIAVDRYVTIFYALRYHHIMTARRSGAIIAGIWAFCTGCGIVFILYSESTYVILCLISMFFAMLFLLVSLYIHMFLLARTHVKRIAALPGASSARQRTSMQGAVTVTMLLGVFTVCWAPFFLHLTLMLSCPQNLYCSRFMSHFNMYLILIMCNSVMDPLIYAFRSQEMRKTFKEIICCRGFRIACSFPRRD

Melanocortin receptor 3 [3] = target: T3, Melanocortin receptor 3 (Homo sapiens, UniProt P41968); test: Maximum percentage of cAMP accumulation compared to alpha-MSH at human melanocortin 3 receptor at 10 uM; assay type: functional
T3 sequence (P41968 whole entry): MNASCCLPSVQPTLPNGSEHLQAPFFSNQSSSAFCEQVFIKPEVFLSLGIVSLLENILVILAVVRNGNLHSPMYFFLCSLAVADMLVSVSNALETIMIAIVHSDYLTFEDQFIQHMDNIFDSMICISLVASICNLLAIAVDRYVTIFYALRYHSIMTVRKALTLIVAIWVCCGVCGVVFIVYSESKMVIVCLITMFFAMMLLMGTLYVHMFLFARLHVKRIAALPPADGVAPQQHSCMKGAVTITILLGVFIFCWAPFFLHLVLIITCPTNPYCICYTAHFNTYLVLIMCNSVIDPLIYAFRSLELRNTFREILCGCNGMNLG

Melanocortin receptor 4 [4] = target: T1, Melanocortin receptor 4; test: Inhibition of [125I]-NDP- alpha-MSH binding to human melanocortin 4 receptor expressed in CHO cells; assay type: cell-based
Melanocortin receptor 4 [5] = target: T1, Melanocortin receptor 4; test: Effective concentration at human melanocortin 4 receptor in cAMP release assay; assay type: functional
Melanocortin receptor 5 [6] = target: T2, Melanocortin receptor 5; test: Inhibition of [125I]-NDP- alpha-MSH binding to human melanocortin 5 receptor expressed in CHO cells; assay type: cell-based
Melanocortin receptor 3 [7] = target: T3, Melanocortin receptor 3; test: Inhibition of [125I]-NDP- alpha-MSH binding to human melanocortin 3 receptor expressed in CHO cells; assay type: cell-based
[8] = target: T4, Melanocyte-stimulating hormone receptor (Homo sapiens, UniProt Q01726); test: Inhibition of [125I]-NDP- alpha-MSH binding to human melanocortin 1 receptor
Target sequence in this assay (Q01726 whole entry): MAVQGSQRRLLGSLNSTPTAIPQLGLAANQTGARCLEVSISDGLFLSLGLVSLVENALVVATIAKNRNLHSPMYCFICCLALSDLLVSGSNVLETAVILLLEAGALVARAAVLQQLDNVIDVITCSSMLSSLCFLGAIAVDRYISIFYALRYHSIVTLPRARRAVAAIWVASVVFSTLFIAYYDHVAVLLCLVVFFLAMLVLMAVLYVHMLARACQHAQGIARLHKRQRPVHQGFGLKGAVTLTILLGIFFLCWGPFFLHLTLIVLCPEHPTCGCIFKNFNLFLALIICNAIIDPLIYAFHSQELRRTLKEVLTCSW

[9] = target: T4, Melanocyte-stimulating hormone receptor; test: Effective concentration against human melanocortin 1 receptor in cAMP release assay; assay type: functional
Target sequence in this assay (Q01726 whole entry): as above

Melanocortin receptor 3 [10] = target: T3, Melanocortin receptor 3; test: Inhibition of [125I]-NDP- alpha-MSH binding to human melanocortin 3 receptor
Melanocortin receptor 4 [11] = target: T1, Melanocortin receptor 4; test: Inhibition of [125I]-NDP- alpha-MSH binding to human melanocortin 4 receptor
Melanocortin receptor 3 [12] = target: T3, Melanocortin receptor 3; test: Effective concentration against human melanocortin 3 receptor in cAMP release assay; assay type: functional
Melanocortin receptor 5 [13] = target: T2, Melanocortin receptor 5; test: Inhibition of [125I]-NDP- alpha-MSH binding to human melanocortin 5 receptor
Melanocortin receptor 3 [14] = target: T3, Melanocortin receptor 3; test: Maximum percentage of cAMP accumulation compared to alpha-MSH at human melanocortin 3 receptor; assay type: functional
Melanocortin receptor 5 [15] = target: T2, Melanocortin receptor 5; test: Effective concentration against human melanocortin 5 receptor in cAMP release assay; assay type: functional
Melanocortin receptor 5 [16] = target: T2, Melanocortin receptor 5; test: Maximum percentage of cAMP accumulation compared to alpha-MSH at human melanocortin 5 receptor; assay type: functional
[17] = target: T4, Melanocyte-stimulating hormone receptor; conditions: 10 uM
Target sequence in this assay (Q01726 whole entry, looked up): as the sequence (Q01726 whole entry) above
Description: Maximum percentage of cAMP accumulation compared to alpha-MSH at human melanocortin 1 receptor at 10 uM

Melanocortin receptor 3 [18] = target: T3, Melanocortin receptor 3; test: Inhibition of [125I]-NDP- alpha-MSH binding to human melanocortin 3 receptor expressed in CHO cell at 4 uM; assay type: cell-based

T1 sequence (P32245 whole entry): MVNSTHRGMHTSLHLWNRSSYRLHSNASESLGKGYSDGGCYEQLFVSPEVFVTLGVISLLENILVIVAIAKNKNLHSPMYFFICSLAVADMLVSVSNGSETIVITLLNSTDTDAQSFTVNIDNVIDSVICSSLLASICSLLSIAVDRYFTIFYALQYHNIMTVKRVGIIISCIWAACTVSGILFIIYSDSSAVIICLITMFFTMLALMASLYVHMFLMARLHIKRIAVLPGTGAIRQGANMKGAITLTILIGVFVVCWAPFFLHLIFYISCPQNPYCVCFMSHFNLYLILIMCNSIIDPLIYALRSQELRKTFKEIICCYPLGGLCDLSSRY

Structure (SMILES)	Max (Melanocortin receptor 4 [1])	Max (Melanocortin receptor 5 [2])	Max (Melanocortin receptor 3 [3])	IC50 (Melanocortin receptor 4 [4])	EC50 (Melanocortin receptor 4 [5])	IC50 (Melanocortin receptor 5 [6])	IC50 [8]	IC50 (Melanocortin receptor 3 [10])	IC50 (Melanocortin receptor 5 [13])	other results
COc1ccc(N2N=C(Sc3ccc(Cl)cc3)CC(CC[C@@H](C)NC(=O)C3CNC[C@@H]3c3ccc(F)cc3)C2=O)cc1 (single isomer, unassigned; 67) [listing 1 of 2 here]	90%	5%	10%							
COc1ccc(-n2nc(Sc3ccc(Cl)cc3)cc(CC[C@@H](C)NC(=O)[C@H]3CNCC[C@@H]3c3ccc(F)cc3)c2=O)cc1	71%	7%	6%	11 nM	61 nM	840 nM				IC50 (Melanocortin receptor 3 [7]): 940 nM
COc1ccc(N2N=C(Sc3ccc(Cl)cc3)CC(CC[C@@H](C)NC(=O)[C@H]3CCNC[C@@H]3c3ccc(F)cc3)C2=O)cc1 (stereo in doubt; 63) [listing 1 of 2 here]				22 nM	30 nM		1100 nM	4700 nM	3100 nM	EC50 [9]: 220 nM; IC50 (Melanocortin receptor 4 [11]): 22 nM; EC50 (Melanocortin receptor 3 [12]): 1100 nM
COc1ccc(-n2nc(Sc3ccc(Cl)cc3)cc(CC[C@@H](C)NC(=O)[C@H]3CNC[C@@H]3c3ccc(F)cc3)c2=O)cc1	84%	5%		70 nM	110 nM	1400 nM				Max (Melanocortin receptor 3 [14]): 24%; IC50 (Melanocortin receptor 3 [7]): > 3000 nM; EC50 (Melanocortin receptor 3 [12]): 2400 nM
COc1ccc(-n2nc(Sc3ccc(Cl)cc3)cc(CC[C@@H](C)NC(=O)[C@H]3CCNC[C@@H]3c3ccc(F)cc3)c2=O)cc1	101%	1%	45%	66 nM	110 nM	1200 nM				inhibition (Melanocortin receptor 3 [18]): 40%
COc1ccc(N2N=C(Sc3ccc(Cl)cc3)CC(CC[C@@H](C)NC(=O)C3CNC[C@@H]3c3ccc(F)cc3)C2=O)cc1 (single isomer, unassigned; 67) [listing 2 of 2 here]				18 nM	66 nM		290 nM	1600 nM	690 nM	EC50 [9]: 240 nM

More lines, main results first:

Max (Melanocortin receptor 4 [1])	Max (Melanocortin receptor 5 [2])	Max (Melanocortin receptor 3 [3])	IC50 (Melanocortin receptor 4 [4])	EC50 (Melanocortin receptor 4 [5])	IC50 (Melanocortin receptor 5 [6])	IC50 [8]	IC50 (Melanocortin receptor 3 [10])	IC50 (Melanocortin receptor 5 [13])	Structure (SMILES)	other results
98%	7%								COc1ccc(N2N=C(Sc3ccc(Cl)cc3)CC(CC[C@@H](C)NC(=O)[C@H]3CCNC[C@@H]3c3ccc(F)cc3)C2=O)cc1 (stereo in doubt; 63) [listing 2 of 2 here]	Max (Melanocortin receptor 3 [14]): 21%
			1.5 nM	40 nM		230 nM	420 nM	1100 nM	COc1ccc(N2N=C(Sc3ccc(Cl)cc3)CC(CC[C@@H](C)NC(=O)[C@H]3CNCC[C@@H]3c3ccc(F)cc3)C2=O)cc1 (stereo in doubt; 26) [listing 1 of 2 here]	EC50 (Melanocortin receptor 5 [15]): 2400 nM; IC50 (Melanocortin receptor 4 [11]): 1.5 nM
67%		5%							COc1ccc(N2N=C(Sc3ccc(Cl)cc3)CC(CC[C@@H](C)NC(=O)[C@H]3CNCC[C@@H]3c3ccc(F)cc3)C2=O)cc1 (stereo in doubt; 26) [listing 2 of 2 here]	Max (Melanocortin receptor 5 [16]): 27%; Max [17]: 12%
